Results published in paper PMC11629774 (Science (New York, N.Y.), 2024).

Tested on: primary human tonsillar lymphocytes
Assay: Toxicity in primary human tonsillar lymphocytes at 72 hours
Format: cell-based
Conditions: Lymphocyte, read-out: EC50 toxicity

For `CC(C)(C)c1cnc(CSc2cnc(NC(=O)C3CCNCC3)s2)o1` [SNS-032], the EC50 was ~0.15 µM.
Molecule `CC(C)(C)c1cnc(CSc2cnc(NC(=O)C3CCN(CC(=O)NCCOCCOCCOCCNc4cccc5c4C(=O)N(C4CCC(=O)NC4=O)C5=O)CC3)s2)o1` (centres unmarked) [THAL-SNS-032] has an EC50 of ~0.015 µM.
